The values below are quoted from earlier work in article PMC8961538, “N-Acylated and N-Alkylated 2-Aminobenzothiazoles Are Novel Agents That Suppress the Generation of Prostaglandin E2” (Biomolecules, 2022).

Series [1] concerns spinal PGE2 release. Further details: method as in PMID 16203828. Particulars: in vivo; cited from earlier work.
The test system of series [2] is hyperalgesia. More on the design: method as in PMID 16203828. The following applies: in vivo; cited from earlier work.
Series [3] has as its system GIVA cPLA2. Further details: method as in PMID 16203828. Particulars: in vitro; cited from earlier work.
The subject of series [4] is GVIA iPLA2. Further details: method as in PMID 16203828. Particulars: in vitro; cited from earlier work.
Series [5] deals with allodynia after facial carrageenan injection. The following applies: after facial carrageenan injection in mice; cited from earlier work.
Series [6] has as its system PGE2 generation in rat mesangial cells. Particulars: rat mesangial cells; cited from earlier work.
In series [7] the test system is PGE2 generation in CD4+ T cells. More on the design: method as in PMID 25213337. Particulars: cited from earlier work.

On to `CCCCCCCCCCCCCCC(=O)C(=O)NCCCC(=O)OCC` [AX048, ethyl 4-(2-oxohexadecanamido)butanoate], for which the “Inhibition of spinal PGE2 release” value in series [1] is given as “inhibits spinal PGE2 release”. The Anti-hyperalgesic activity entry in series [2] is on record as “anti-hyperalgesic activity”. For the same compound, the “XI(50) for GIVA cPLA2” value in series [3] is 0.022 mole fraction. Further, the “XI(50) for GVIA iPLA2” value in series [4] is 0.027 mole fraction.

In the case of `CCCCC/C=C\C/C=C\C/C=C\C/C=C\CCCC(=O)C(F)(F)F` [arachidonoyl trifluoromethyl ketone], the Effect on allodynia result in series [5] is listed as “modulates allodynia”. Further, the “Inhibition of cytokine-stimulated generation of PGE2” value in series [6] is “inhibits”.

Take `O=C(CCCCc1ccc2ccccc2c1)C(F)(F)F` [FKGK18, 1,1,1-trifluoro-6-(2-naphthalenyl)-2-hexanone]: the “Inhibition of generation of PGE2” value in series [7] is recorded as “inhibit the generation of PGE2”.
